How the values were obtained:
[1] = tested on: rabbit serum obtained by immunizing a rabbit with the SARS-CoV strain Frankfurt 1; format: binding; design: Binding of a rabbit serum to linear peptides / Binding of a rabbit serum to looped peptides / Rabbit serum linear peptides / Rabbit serum looped peptides / Binding of a rabbit serum to linear peptides of protein N of SARS-CoV Urbani (Rabbit serum linear peptides) / Binding of a rabbit serum to looped/cyclic peptides of protein N of SARS-CoV Urbani (Rabbit serum looped peptides): unit not given here
[2] = tested on: control sera (pooled serum of ten healthy LUMC hospital workers; commercial negative donor pooled serum from the Dutch bloodbank); format: binding, human; design: Binding of Control serum LUMC to linear peptides / Binding of Control serum Blood-bank to linear peptides / Binding of Control serum LUMC to looped peptides / Binding of Control Serum Blood-Bank to Looped peptides / Binding of Control serum LUMC to linear peptides of the protein M of SARS-CoV Urbani / Binding of Control serum Blood-bank to linear peptides of the protein M of SARS-CoV Urbani / Binding of Control serum LUMC to looped peptides of the protein M of SARS-CoV Urbani / Binding of Control Serum Blood-Bank to Looped peptides of the protein M of SARS-CoV Urbani: unit not given here
[3] = tested on: antibodies in sera from SARS patients (sera 1a, 1b, 2, 6, 37, 62, London, SARS-yellow, SARS-green); format: binding, human; design: Binding of serum 6 to linear peptides of protein X1 of SARS-CoV Urbani / Binding of serum 37 to linear peptides of protein X1 of SARS-CoV Urbani / Binding of serum 6 to looped/cyclic peptide (PEPSCAN-ELISA) / Binding of serum 37 to looped/cyclic peptide (PEPSCAN-ELISA) / Binding of serum 37 to looped/cyclic peptides of protein X1 of SARS-CoV Urbani / Binding of serum 6 to linear peptides of protein X2 / Binding of serum 37 to linear peptides of protein X2 / Binding of serum 37 to looped/cyclic peptides of protein X2 of SARS-CoV Urbani / Binding of serum 6 to linear peptides of protein M of SARS-CoV Urbani / Binding of serum 37 to linear peptides of protein M of SARS-CoV Urbani / Binding of serum 6 to looped/cyclic peptides of protein M of SARS-CoV Urbani / Binding of serum 37 to looped/cyclic peptides of protein M of SARS-CoV Urbani / Binding of serum 6 to linear peptides of protein X3 of SARS-CoV Urbani / Binding of serum 37 to linear peptides of protein X3 of SARS-CoV Urbani / Binding of serum 37 to looped/cyclic peptides of protein X3 of SARS-CoV Urbani / Binding of serum 6 to linear peptides of protein X4 of SARS-CoV Urbani / Binding of serum 37 to linear peptides of protein X4 of SARS-CoV Urbani / Binding of serum 37 to looped/cyclic peptides of protein X4 of SARS-CoV Urbani / Binding of serum 6 to linear peptides of protein X5 of SARS-CoV Urbani / Binding of serum 37 to linear peptides of protein X5 of SARS-CoV Urbani / Binding of serum 37 to looped/cyclic peptides of protein X5 of SARS-CoV Urbani / Binding of serum 6 to linear peptides of protein N of SARS-CoV Urbani / Binding of serum 37 to linear peptides of protein N of SARS-CoV Urbani / Binding of serum 6 to linear peptide (PEPSCAN-ELISA) / Binding of serum 1a to looped/cyclic peptides of protein N of SARS-CoV Urbani / Binding of serum 1b to looped/cyclic peptides of protein N of SARS-CoV Urbani / Binding of serum 2 to looped/cyclic peptides of protein N of SARS-CoV Urbani / Binding of serum 6 to looped/cyclic peptides of protein N of SARS-CoV Urbani / Binding of serum 37 to looped/cyclic peptides of protein N of SARS-CoV Urbani / Binding of serum 62 to looped/cyclic peptides of protein N of SARS-CoV Urbani / Binding of serum London to looped/cyclic peptides of protein N of SARS-CoV Urbani / Binding of serum SARS-green to looped/cyclic peptides of protein N of SARS-CoV Urbani: unit not given here

IPYNSVTDTIVVTEG
Binding of a rabbit serum to linear peptides [1]: 0.1
Binding of a rabbit serum to looped peptides [1]: 0.3
Binding of Control Serum Blood-Bank to Looped peptides [2]: 0.6
Binding of Control serum Blood-bank to linear peptides [2]: 0.4
Binding of Control serum LUMC to linear peptides [2]: 0.5
Binding of Control serum LUMC to looped peptides [2]: 0.4
Binding of serum 1a to linear peptides of protein X1 of SARS-CoV Urbani [3]: 0.7
Binding of serum 1a to looped/cyclic peptides of protein X1 of SARS-CoV Urbani [3]: 0.5
Binding of serum 1b to linear peptides of protein X1 of SARS-CoV Urbani [3]: 0.5
Binding of serum 1b to looped/cyclic peptides of protein X1 of SARS-CoV Urbani [3]: 0.4
Binding of serum 2 to linear peptides of protein X1 of SARS-CoV Urbani [3]: 0.5
Binding of serum 2 to looped/cyclic peptides of protein X1 of SARS-CoV Urbani [3]: 0.4
Binding of serum 6 to linear peptides of protein X1 of SARS-CoV Urbani [3]: 0.4
Binding of serum 6 to looped/cyclic peptides of protein X1 of SARS-CoV Urbani [3]: 0.3
Binding of serum 37 to linear peptides of protein X1 of SARS-CoV Urbani [3]: 0.6
Binding of serum 37 to looped/cyclic peptides of protein X1 of SARS-CoV Urbani [3]: 0.5
Binding of serum 62 to linear peptides of protein X1 of SARS-CoV Urbani [3]: 0.4
Binding of serum 62 to looped/cyclic peptides of protein X1 of SARS-CoV Urbani [3]: 0.5
Binding of serum London to linear peptides of protein X1 of SARS-CoV Urbani [3]: 0.2
Binding of serum London to looped/cyclic peptides of protein X1 of SARS-CoV Urbani [3]: 0.2
Binding of serum SARS-green to linear peptides of protein X1 of SARS-CoV Urbani [3]: 0.3
Binding of serum SARS-green to looped/cyclic peptides of protein X1 of SARS-CoV Urbani [3]: 0.3
Binding of serum SARS-yellow to linear peptides of protein X1 of SARS-CoV Urbani [3]: 0.4
Binding of serum SARS-yellow to looped/cyclic peptides of protein X1 of SARS-CoV Urbani [3]: 0.2

IQQWIQFMMSRRRLL
Binding of a rabbit serum to linear peptides [1]: 0.4
Binding of a rabbit serum to looped peptides [1]: 1.0
Binding of Control Serum Blood-Bank to Looped peptides [2]: 0.5
Binding of Control serum Blood-bank to linear peptides [2]: 0.7
Binding of Control serum LUMC to linear peptides [2]: 0.5
Binding of Control serum LUMC to looped peptides [2]: 0.6
Binding of serum 1a to linear peptides of protein X2 [3]: 0.6
Binding of serum 1a to looped/cyclic peptides of protein X2 of SARS-CoV Urbani [3]: 0.4
Binding of serum 1b to linear peptides of protein X2 [3]: 0.5
Binding of serum 1b to looped/cyclic peptides of protein X2 of SARS-CoV Urbani [3]: 0.4
Binding of serum 2 to linear peptides of protein X2 [3]: 0.4
Binding of serum 2 to looped/cyclic peptides of protein X2 of SARS-CoV Urbani [3]: 0.5
Binding of serum 6 to linear peptides of protein X2 [3]: 0.6
Binding of serum 6 to looped/cyclic peptides of protein X2 of SARS-CoV Urbani [3]: 0.4
Binding of serum 37 to linear peptides of protein X2 [3]: 0.6
Binding of serum 37 to looped/cyclic peptides of protein X2 of SARS-CoV Urbani [3]: 0.5
Binding of serum 62 to linear peptides of protein X2 [3]: 0.5
Binding of serum 62 to looped/cyclic peptides of protein X2 of SARS-CoV Urbani [3]: 0.7
Binding of serum London to linear peptides of protein X2 [3]: 0.4
Binding of serum London to looped/cyclic peptides of protein X2 of SARS-CoV Urbani [3]: 0.2
Binding of serum SARS-green to linear peptides of protein X2 [3]: 0.3
Binding of serum SARS-green to looped/cyclic peptides of protein X2 of SARS-CoV Urbani [3]: 0.4
Binding of serum SARS-yellow to linear peptides of protein X2 [3]: 0.8
Binding of serum SARS-yellow to looped/cyclic peptides of protein X2 of SARS-CoV Urbani [3]: 0.5

IRQEEVQQELYSPLF
Rabbit serum linear peptides [1]: 0.4
Rabbit serum looped peptides [1]: 0.4
Binding of Control Serum Blood-Bank to Looped peptides [2]: 0.7
Binding of Control serum Blood-bank to linear peptides [2]: 0.7
Binding of Control serum LUMC to linear peptides [2]: 0.7
Binding of Control serum LUMC to looped peptides [2]: 0.9
Binding of serum 1a to linear peptides of protein X4 of SARS-CoV Urbani [3]: 0.7
Binding of serum 1b to linear peptides of protein X4 of SARS-CoV Urbani [3]: 0.6
Binding of serum 2 to linear peptides of protein X4 of SARS-CoV Urbani [3]: 0.5
Binding of serum 6 to linear peptides of protein X4 of SARS-CoV Urbani [3]: 0.5
Binding of serum 37 to linear peptides of protein X4 of SARS-CoV Urbani [3]: 0.8
Binding of serum 62 to linear peptides of protein X4 of SARS-CoV Urbani [3]: 0.8
Binding of serum London to linear peptides of protein X4 of SARS-CoV Urbani [3]: 0.7
Binding of serum SARS-green to linear peptides of protein X4 of SARS-CoV Urbani [3]: 0.8
Binding of serum SARS-yellow to linear peptides of protein X4 of SARS-CoV Urbani [3]: 0.7
Recognition of the peptide by sera of SARS-CoV infected individuals, and form (linear, looped/cyclic) in which it is recognized [3]: recognized in looped/cyclic form

ITTDTGIENATFFIF
Binding of a rabbit serum to linear peptides [1]: 0.1
Binding of a rabbit serum to looped peptides [1]: 0.6
Binding of Control Serum Blood-Bank to Looped peptides [2]: 0.6
Binding of Control serum Blood-bank to linear peptides [2]: 0.4
Binding of Control serum LUMC to linear peptides [2]: 0.9
Binding of Control serum LUMC to looped peptides [2]: 0.9
Binding of serum 1a to linear peptides of protein X1 of SARS-CoV Urbani [3]: 0.8
Binding of serum 1a to looped/cyclic peptides of protein X1 of SARS-CoV Urbani [3]: 0.7
Binding of serum 1b to linear peptides of protein X1 of SARS-CoV Urbani [3]: 0.7
Binding of serum 1b to looped/cyclic peptides of protein X1 of SARS-CoV Urbani [3]: 0.6
Binding of serum 2 to linear peptides of protein X1 of SARS-CoV Urbani [3]: 0.6
Binding of serum 2 to looped/cyclic peptides of protein X1 of SARS-CoV Urbani [3]: 0.6
Binding of serum 6 to linear peptides of protein X1 of SARS-CoV Urbani [3]: 0.5
Binding of serum 6 to looped/cyclic peptides of protein X1 of SARS-CoV Urbani [3]: 0.5
Binding of serum 37 to linear peptides of protein X1 of SARS-CoV Urbani [3]: 0.6
Binding of serum 37 to looped/cyclic peptides of protein X1 of SARS-CoV Urbani [3]: 0.9
Binding of serum 62 to linear peptides of protein X1 of SARS-CoV Urbani [3]: 0.5
Binding of serum 62 to looped/cyclic peptides of protein X1 of SARS-CoV Urbani [3]: 0.8
Binding of serum London to linear peptides of protein X1 of SARS-CoV Urbani [3]: 0.3
Binding of serum London to looped/cyclic peptides of protein X1 of SARS-CoV Urbani [3]: 0.3
Binding of serum SARS-green to linear peptides of protein X1 of SARS-CoV Urbani [3]: 0.3
Binding of serum SARS-green to looped/cyclic peptides of protein X1 of SARS-CoV Urbani [3]: 0.6
Binding of serum SARS-yellow to linear peptides of protein X1 of SARS-CoV Urbani [3]: 0.5
Binding of serum SARS-yellow to looped/cyclic peptides of protein X1 of SARS-CoV Urbani [3]: 0.7

— US20070128217A1 (priority 2003, published 2007)
